Data reported in patent US20120308570A1, “METHODS FOR TREATING DISEASES” (priority 2009, published 2012).
Peptide text beside a SMILES is read from it. * marks the point of attachment. Cbz = O=C(OCc1ccccc1)*

What was measured:
Assay type in all cases: cell-based, mouse
[1] = test system: iNOS degradation in Ssb-1T/+ and Ssb-2T/+ BMDM; test: iNOS degradation post-wash in SSB transgenic BMDM (Western blot); details: MG-132 10 μM post-wash
Description: FIG. 11. SSB-1 and SSB-2 regulation of iNOS expression is dependent on the proteasome. BMDM from (A) littermate controls (Ssb-1^+/+) and SSB-1-transgenic mice (Ssb-1^T/+) or (B) Ssb-1^+/+ and SSB-2-transgenic mice (Ssb-2^T/+) were incubated with IFNγ and LPS (20 ng/ml) for 16 h, washed, replenished with fresh medium with (+) or without (−) the proteasomal inhibitor MG-132 (10 μM) and lysed at the indicated times post-wash. Proteins were separated by SDS-PAGE and analysed by Western blot using anti-iNOS antibodies. Equivalent protein loading was confirmed by stripping and reprobing the membrane with anti-tubulin antibodies.
Bone marrow-derived macrophages were generated as described and re-plated at 1.0×10^6 cells/well on 6-well plates (Costar) in DME containing 10% FCS and 20% L-cell conditioned media. Cells were incubated with IFNγ and LPS as described, and lysed in KALB lysis buffer (Nicholson et al., 1995) containing protease inhibitors (Complete Cocktail tablets, Roche), 1 mM phenylmethylsulphonyl fluoride, 1 mM Na3VO4 and 1 mM NaF. Proteins were immunoprecipitated using anti-Flag antibody conjugated to Sepharose (M2; EASTMAN KODAK). Proteins were separated by sodium dodecyl sulphatepolyacrylamide gel electrophoresis (SDS-PAGE) under reducing conditions and electrophoretically transferred to Biotrace PVDF membranes (Pall Corp. Ann Arbor, Mich.). […]

[2] = test system: Spsb1 mRNA; test: Spsb1 knockdown in BMDM by Q-PCR; details: 10 ng/ml LPS 4 h, compared to non-sense control shRNA, p<0.0001
Description: Bone marrow-derived macrophages were generated as described and replated at 1.0×10^6 cells/well on 6-well plates (Costar) in DME containing 10% FCS and 20% L-cell conditioned media. The following day, triplicate cultures were incubated with murine IFNγ (10 ng/ml) and LPS (20 ng/ml), unless otherwise indicated. Total cellular RNA was isolated using the RNeasy kit (QIAGEN, Valencia, Calif.) and first strand cDNA synthesis performed using Superscript II RNASE H— reverse transcriptase (Invitrogen, Carlsbad, Calif.) according to the manufacturer's instructions. Real-time PCR was performed on an ABI Prism 7900HT sequence detection system (Applied Biosystems, Foster City, Calif.). Cycling conditions were as follows: initial denaturation (95° C. for 15 min), followed by 40 cycles of 94° C. for 15 s, 50° C. (SSB-1, -4), 60° C. (SSB-2, -3) or 49° C. (GAPDH) for 30 s and 72° C. for 15 s with a transition rate of 20° C./s and a single fluorescence measurement, melting curve program (60° C.-95° C., with a heating rate of 0.1° C./s and continuous fluorescence measurement) and a final cooling step to 40° C. All PCR reactions were performed using the QuantiTect SYBR Green PCR Kit (QIAGEN) in 10 μl reactions containing […] of forward and reverse primers, 5 μl of QuantiTect Master Mix and 4 μl of cDNA (diluted 1 in 5). […]

[3] = test system: iNOS protein in BMDM; test: iNOS expression in shRNA infected BMDM (Western blot)
Description: Bone marrow-derived macrophages were generated as described and re-plated at 1.0×10^6 cells/well on 6-well plates (Costar) in DME containing 10% FCS and 20% L-cell conditioned media. Cells were incubated with IFNγ and LPS as described, and lysed in KALB lysis buffer (Nicholson et al., 1995) containing protease inhibitors (Complete Cocktail tablets, Roche), 1 mM phenylmethylsulphonyl fluoride, 1 mM Na3VO4 and 1 mM NaF. Proteins were immunoprecipitated using anti-Flag antibody conjugated to Sepharose (M2; EASTMAN KODAK). Proteins were separated by sodium dodecyl sulphatepolyacrylamide gel electrophoresis (SDS-PAGE) under reducing conditions and electrophoretically transferred to Biotrace PVDF membranes (Pall Corp. Ann Arbor, Mich.). Membranes were blocked overnight in 10% w/v skim milk and incubated with primary antibody for 2 h. Antibody binding was visualized with either peroxidase-conjugated goat anti-rat immunoglobulin (Southern Biotech) or peroxidase-conjugated sheep anti-rabbit immunoglobulin (Chemicon, Melbourne, Australia), and the enhanced chemiluminescence (ECL) system (Amersham, Little Chalfont, Buckinghamshire, UK). To re-blot, the membrane was first stripped of antibodies in 0.1 M glycine, pH 2.9.
Oligonucleotides targeting SPSB 1 ([…] (SEQ ID NO:84)) were designed as previously described (27). shRNAmir constructs were created by annealing the oligonucleotides in 5× annealing buffer (0.5 M potassium acetate, 0.01 M magnesium acetate and 0.15 M HEPES pH 7.4) for 5 min at 95° C., followed by incubation for 10 min at 80° C. and a 5-7 h ramp from 80° C. to 4° C. (reducing by 0.5° C. every 2.5 min). Annealed oligonucleotides were subsequently subcloned into the LMP vector (Dickins et al; 2005 & 2006). Non-sense shRNAmir and luciferase control constructs in the LMS vector were a kind gift from Dr. Marnie Blewitt (Majewski et al, 2008) and Dr Ross Dickins (unpublished data) respectively. To create retrovirus, 293T cells were transfected as described previously (Majewski et al, 2008). The medium was replaced with DMEM containing 10% FBS and 20% L-cell conditioned medium 24 h after transfection and viral supernatants harvested the following day. Total bone marrow was collected and non-adherent haematopoietic cells were harvested by centrifugation and red blood cells removed by washing in red cell removal buffer (154.4 mM NH4Cl, 0.1 mM EDTA, 12 mM. NaHCO3). Retroviral supernatants were applied to culture dishes pre-treated with 32 μg/ml RetroNectin (Takara Biosciences, Shiga, Japan) and centrifuged for 1 h at 4000 g at 4° C. […]
To analyse the kinetics of iNOS induction in BMDM infected with an Spsb1 shRNA construct cells were stimulated with 100 ng/ml LPS or 25 μg/ml PolyIC for various times, then lysed and iNOS expression analysed by Western blot. […]

[4] = test system: NO production in BMDM; test: Nitric oxide production in shRNA infected BMDM (Griess assay)
Description: As a measure of nitric oxide production, 100 μl of culture supernatants were assayed for nitrite by reaction with 10 μl of Griess reagent A (1% sulfanilamide in 5% phosphoric acid) for 10 min at room temperature, followed by the addition of 10 μl Griess reagent B [0.14% N-(1-naphthyl)ethylenediamine dihydrochloride], and nitrite content determined essentially as described (Scott et al., 2000).
Oligonucleotides targeting SPSB 1 ([…] (SEQ ID NO:84)) were designed as previously described (27). shRNAmir constructs were created by annealing the oligonucleotides in 5× annealing buffer (0.5 M potassium acetate, 0.01 M magnesium acetate and 0.15 M HEPES pH 7.4) for 5 min at 95° C., followed by incubation for 10 min at 80° C. and a 5-7 h ramp from 80° C. to 4° C. (reducing by 0.5° C. every 2.5 min). Annealed oligonucleotides were subsequently subcloned into the LMP vector (Dickins et al; 2005 & 2006). Non-sense shRNAmir and luciferase control constructs in the LMS vector were a kind gift from Dr. Marnie Blewitt (Majewski et al, 2008) and Dr Ross Dickins (unpublished data) respectively. To create retrovirus, 293T cells were transfected as described previously (Majewski et al, 2008). The medium was replaced with DMEM containing 10% FBS and 20% L-cell conditioned medium 24 h after transfection and viral supernatants harvested the following day. Total bone marrow was collected and non-adherent haematopoietic cells were harvested by centrifugation and red blood cells removed by washing in red cell removal buffer (154.4 mM NH4Cl, 0.1 mM EDTA, 12 mM. NaHCO3). Retroviral supernatants were applied to culture dishes pre-treated with 32 μg/ml RetroNectin (Takara Biosciences, Shiga, Japan) and centrifuged for 1 h at 4000 g at 4° C. Bone marrow cells were infected by co-culturing with the virus in the presence of 4 μg/ml 30 polybrene-containing medium for 24 h. […]
Using a Griess assay, NO production was measured in response to 20 ng/ml LPS and 25 μg/ml PolyIC in BMDM infected with non-sense or Spsb1 shRNA at 24 h and 48 h. […]

Compound | effect on enhanced iNOS degradation [1] | Spsb1 expression [2] | kinetics of iNOS clearance ([3]; 20 ng/ml LPS or 25 μg/ml PolyIC overnight, stimulus removed) | iNOS amount in degradation experiment ([3]; 20 ng/ml LPS or 25 μg/ml PolyIC overnight, stimulus removed, compared to non-sense) | iNOS protein amount during induction timecourse ([3]; 100 ng/ml LPS or 25 μg/ml PolyIC) | time of first observed iNOS expression post-treatment ([3]; 100 ng/ml LPS or 25 μg/ml PolyIC, non-sense shRNA control 8 h) [h] | NO production ([4]; 24 h, LPS and PolyIC, compared to non-sense) | NO production ([4]; 48 h, LPS, p=0.0446) | NO production ([4]; 48 h, PolyIC)
CC(C)C[C@@H](C=O)NC(=O)[C@H](CC(C)C)NC(=O)[C@H](CC(C)C)NC(=O)OCc1ccccc1 [MG-132] (Cbz-Leu-Leu-Leu-aldehyde) | abrogated | – | – | – | – | – | – | – | –
Spsb1 shRNA: retroviral shRNAmir construct targeting SPSB1, CCAGATGCAGAGAATAAACTA (SEQ ID NO:84), in LMP vector | – | significantly reduced | essentially unchanged | increased amount of iNOS | more iNOS protein | 6 | increase | significant increase | increase
